{"source": "patent EP0511033A1", "about": "“Extracts of the common lady's mantle, their preparation and their applications” (SYNTHELABO, priority 1991, dated 1992)", "key": {"[1]": {"assay": "Superoxide anion scavenging test (NADH/PMS generation, NBT reduction to diformazan, spectrophotometry)", "format": "biochemical", "conditions": "for concentration donnant 90 % d'inhibition: 90 % inhibition of diformazan coloration", "description": "On a également testé l'activité anti-radicalaire sur l'anion superoxyde généré par la réaction de NADH (nicotinamide adénine dinucléotide hydrate) sur le PMS (phénazine méthosulfate). L'anion superoxyde provoque la réduction du NBT (Nitrobleu de Tétrazolium) en diformazan, de coloration bleu intense. On dose celui-ci par spectrophotométrie (Roback J., Gryglewski RJ., Biomedical Pharmacology, 1988, 37, (5), P. 837-841). On exprime l'activité anti-radicalaire d'une substance en pourcentage d'inhibition du développement de coloration due au diformazan. Par cette méthode de dosage, les extraits d'Alchemille présentent une activité bien supérieure aux 2 témoins testés, qui sont la quercétine et l'acide rosmarinique. Ainsi, on obtient 90 % d'inhibition avec des concentrations respectivement de 0,5 mg/ml d'acide rosmarinique et de quercétine, alors qu'on atteint ce niveau d'inhibition à une concentration de 0,1 mg/ml d'extrait aqueux d'Alchemille. Cet extrait est donc, dans ces conditions, 5 fois plus actif que les 2 témoins qui sont les plus actifs parmi les substances testées."}, "[2]": {"assay": "Free radical scavenging test on diphénylpicrylhydrazyl hydrate (decrease of absorbance at 513 nm)", "format": "biochemical", "description": "Les extraits d'Alchemille obtenus selon l'invention présentent également des activités anti-radicalaires. On a démontré ces activités in vitro par deux méthodes de dosage. On a réalisé la première méthode de dosage sur un radical libre : le diphénylpicrylhydrazyl hydrate qui absorbe dans le violet à 513 nm. (Lamaison JL., Petitjean-Freytet C., Carnat P., Carnat A., 1988, Plantes Médicinales et Phytothérapie, 22, (4), p. 231-234). Un composé anti-radicalaire, piégeur des radicaux libres, entraîne une inhibition d'apparition de coloration du radical libre témoin, donc une diminution de la densité optique de ce radical libre. L'activité anti-radicalaire d'une substance s'exprime par la diminution du pourcentage d'absorbance du radical libre testé.Dans ces conditions de test, un extrait d'Alchemille obtenu selon l'invention présente une activité similaire à la vitamine E qui est la substance de référence la plus utilisée."}}}
{"compound": "O=C(/C=C/c1ccc(O)c(O)c1)O[C@H](Cc1ccc(O)c(O)c1)C(=O)O", "note": "[Acide rosmarinique]", "values": [{"measurement": "concentration donnant 90 % d'inhibition", "setting": "[1]", "result": "0,5 mg/ml"}, {"measurement": "INHIBITION %", "setting": "[1]; concentration 0,01 mg/ml", "result": 2, "unit": "%"}, {"measurement": "INHIBITION %", "setting": "[1]; concentration 0,1 mg/ml", "result": 59, "unit": "%"}, {"measurement": "INHIBITION %", "setting": "[1]; concentration 0,05 mg/ml", "result": 28, "unit": "%"}, {"measurement": "INHIBITION %", "setting": "[1]; concentration 0,5 mg/ml", "result": 90, "unit": "%"}, {"measurement": "INHIBITION %", "setting": "[1]; concentration 1 mg/ml", "result": 99, "unit": "%"}]}
{"compound": "O=c1c(O)c(-c2ccc(O)c(O)c2)oc2cc(O)cc(O)c12", "note": "[Quercétine]", "values": [{"measurement": "concentration donnant 90 % d'inhibition", "setting": "[1]", "result": "0,5 mg/ml"}, {"measurement": "INHIBITION %", "setting": "[1]; concentration 0,01 mg/ml", "result": 1, "unit": "%"}, {"measurement": "INHIBITION %", "setting": "[1]; concentration 0,1 mg/ml", "result": 69, "unit": "%"}, {"measurement": "INHIBITION %", "setting": "[1]; concentration 0,05 mg/ml", "result": 31, "unit": "%"}, {"measurement": "INHIBITION %", "setting": "[1]; concentration 0,5 mg/ml", "result": 91, "unit": "%"}, {"measurement": "INHIBITION %", "setting": "[1]; concentration 1 mg/ml", "result": 98, "unit": "%"}]}
{"compound": "Vitamine E", "values": [{"measurement": "INHIBITION %", "setting": "[2]; concentration 0,01 mg/ml", "result": 9, "unit": "%"}, {"measurement": "INHIBITION %", "setting": "[2]; concentration 0,1 mg/ml", "result": 61, "unit": "%"}, {"measurement": "INHIBITION %", "setting": "[2]; concentration 0,05 mg/ml", "result": 28, "unit": "%"}, {"measurement": "INHIBITION %", "setting": "[2]; concentration 0,5 mg/ml", "result": 95, "unit": "%"}, {"measurement": "INHIBITION %", "setting": "[2]; concentration 1 mg/ml", "result": 96, "unit": "%"}]}
{"compound": "O=C(/C=C/c1ccc(O)c(O)c1)OC1CC(OC(=O)/C=C/c2ccc(O)c(O)c2)(C(=O)O)CC(O)C1O", "note": "(centres unmarked) [Cynarine]", "values": [{"measurement": "activité anti-radicalaire (comparison in words)", "setting": "[2]; compared with vitamine E", "result": "activité légèrement supérieure à la vitamine E"}, {"measurement": "INHIBITION %", "setting": "[2]; concentration 0,01 mg/ml", "result": 16, "unit": "%"}, {"measurement": "INHIBITION %", "setting": "[2]; concentration 0,1 mg/ml", "result": 89, "unit": "%"}, {"measurement": "INHIBITION %", "setting": "[2]; concentration 0,05 mg/ml", "result": 60, "unit": "%"}, {"measurement": "INHIBITION %", "setting": "[2]; concentration 0,5 mg/ml", "result": 94, "unit": "%"}, {"measurement": "INHIBITION %", "setting": "[2]; concentration 1 mg/ml", "result": 96, "unit": "%"}]}
